Assay [1] concerns DU-145 cells. The assay can be described thus: Cell cycle assay (flow cytometry, PI). In kind it is cell-based, human. The note with it: 24 h, highest concentrations. As to the method: Cells were subjected to AQQ1 and DOXO treatments as previously described for apoptosis necrosis analysis. For cell cycle analysis, a cell population of 1 × 10^6 was collected, centrifuged, and the supernatant was removed. The resulting cellular pellet was re-suspended in 70% cold ethanol in PBS. Subsequently, the cells underwent a single PBS wash, followed by incubation in PBS containing […] PI (Sigma-Aldrich, St. Louis, MO, USA) and 2 mg/mL DNase-free RNase-A (Affymetrix, Inc., Santa Barbara, CA, USA) for 30 min at room temperature in a light-protected environment. Analysis was performed using the BD FACS Calibur Flow Cytometry System, and the BD CellQuest Pro Software software (version 5.1, Becton Dickinson, USA) was employed to determine cell cycle phase distributions in comparison to the control group.

Assay [2] relates to DU-145 cells. The assay can be described thus: MTT assay. The note with it: Homo sapiens, 24 h, mean ± SEM. In kind it is cell-based. The procedure: (§1) For the MTT assay, DU-145, MDA-MB-231, HCT-116, and HUVEC cells (American Type Culture Collection) were seeded at a concentration of 1 × 10^4 cells per well in 96-well plates and allowed to incubate overnight, ensuring proper adherence. Subsequently, a series of concentrations for both AQQ1 and AQQ2 (ranging from 1 to 100 µM) were added to the culture medium with a final concentration of 1% DMSO, and cells were subjected to an additional 24 h incubation period. The control group only received 1% DMSO (Biomatik, Cambridge, ON, Canada). To establish a baseline for comparison, DOXO (Saba, İstanbul, Turkey), a known chemotherapeutic agent, was administered at equivalent concentrations. Following the incubation period, MTT (3-(4,5-dimethylthiazol-2-yl)-2,5-diphenyltetrazolium bromide) (Biomatik, Canada) assay was carried out to assess cell viability. Finally, the absorbance was quantified at 590 nm using a BioTek Epoc plate reader (Biotek, Winooski, VT, USA). The derived data were analysed using GraphPad Prism 8 software to calculate the inhibitory concentration 50 (IC50) values of the test compounds.

Another assay deals with MDA-MB-231 cells. Description: MTT assay. The note with it: Homo sapiens, 24 h, mean ± SEM. In kind it is cell-based. The procedure:
as §1

Assay [3] concerns Human Umbilical Vein Endothelial Cells (HUVEC). The assay can be described thus: MTT assay. The format is cell-based. The note with it: 24 h, mean ± SEM. As to the method: as §1
A further assay relates to HCT-116 cells. Description: MTT assay. The format is cell-based. The following applies: Homo sapiens, 24 h, mean ± SEM. The procedure: as §1

Counter-ions that a name gives are not always drawn.

The values below come from paper PMC11200585, “Prospects for Prostate Cancer Chemotherapy: Cytotoxic Evaluation and Mechanistic Insights of Quinolinequinones with ADME/PK Profile” (Biomedicines, 2024).

Consider `COc1cccc2c1C(=O)c1c(O)c3c(c(O)c1C2=O)C[C@@](O)(C(=O)CO)C[C@@H]3O[C@H]1C[C@H](N)[C@H](O)[C@H](C)O1` [DOXO, Doxorubicin HCl, reference compound], for which, in the assay on DU-145 cells [1], the “population of cells in the G0/G1 phase” value is given as “showed a similar effect on DU-145 cells”. Further, the IC50 in the assay on DU-145 cells [2] is under 100 µM; in the assay on MDA-MB-231 cells, 59.1 ± 9.06 µM; in assay [3], 57.5 ± 9.82 µM; with HCT-116 cells it was 24.4 ± 6.9 µM.
